Data reported in patent US10752616B2, “Bicycloheteroaryl-heteroaryl-benzoic acid compounds as retinoic acid receptor beta (RARβ) agonists” (King's College London, priority 2014, dated 2020).

Assays:
Type in all cases: cell-based
[1] = molecular target: RARα (Mus musculus (Mouse), UniProt P11416); experiment: Transactivation assay for RARα (gal4-RAR fusion, pFR-luc reporter, COS-7 cells), Table 2; conditions: for EC50: Table 2, COS-7 reporter, mean of three or more determinations, inactive = no agonist action at highest concentration tested; for RARα/RARβ ratio: fold-selectivity for RARβ over RARα, >1 = selective for RARβ
Chain of RARα (P11416 183-417): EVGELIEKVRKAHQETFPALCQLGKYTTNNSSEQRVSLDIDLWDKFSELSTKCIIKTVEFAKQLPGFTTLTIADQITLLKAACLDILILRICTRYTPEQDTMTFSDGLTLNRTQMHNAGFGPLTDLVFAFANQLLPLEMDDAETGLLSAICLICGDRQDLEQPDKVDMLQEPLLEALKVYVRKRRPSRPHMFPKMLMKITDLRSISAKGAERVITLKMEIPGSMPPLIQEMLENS
Method: (§1) Transcriptional transactivation assays were performed with gal4 fusion receptor constructs, created using each of the RAR ligand binding domains of either mouse or human, co-transfected with the pFR-luc (Stratagene) reporter construct in COS-7 cells.
(§2) Briefly, on day 1, 96 well plates were seeded with 8000 cells per well then left to recover overnight. On day 2, the cells were co-transfected with 100 ng of reporter plasmid and 10 ng of the appropriate receptor plasmid per well using lipofectamine (Invitrogen). On day 3, the lipofectamine containing media was replaced by a DMEM without phenol red, followed by the addition of test compound dissolved in 1 μL of DMSO to each well's 100 μL total volume. Finally, on day 4, the cells were lysed and their luciferase substrate was provided by the BrightGlo™ reagent (Promega), the plates were then read on the MicroBeta TriLux™ (Perkin Elmer).
(§3) Data for test compounds are quoted as EC50 values. Where replicate data has been generated, the data are quoted as the mean EC50 from the separate experiments.
(§4) EC50's values are reported as mean values of three or more determinations.

[2] = molecular target: RARβ (Mus musculus (Mouse), UniProt P22605); experiment: Transactivation assay for RARβ (gal4-RAR fusion, pFR-luc reporter, COS-7 cells), Table 2; conditions: COS-7 reporter, mean of three or more determinations, species not stated (method: mouse or human)
Chain of RARβ (P22605 210-444): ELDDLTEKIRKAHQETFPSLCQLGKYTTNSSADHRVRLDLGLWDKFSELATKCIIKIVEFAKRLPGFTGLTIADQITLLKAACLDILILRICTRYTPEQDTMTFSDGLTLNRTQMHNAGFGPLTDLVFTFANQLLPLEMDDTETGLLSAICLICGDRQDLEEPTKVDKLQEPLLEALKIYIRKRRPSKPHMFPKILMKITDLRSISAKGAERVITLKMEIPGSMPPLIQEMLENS
Method: as §1, §2, §3, §4

[3] = molecular target: RARγ (Mus musculus (Mouse), UniProt P18911); experiment: Transactivation assay for RARγ (gal4-RAR fusion, pFR-luc reporter, COS-7 cells), Table 2; conditions: for EC50: Table 2, COS-7 reporter, mean of three or more determinations, inactive = no agonist action at highest concentration tested; for RARγ/RARβ ratio: fold-selectivity for RARβ over RARγ, >1 = selective for RARβ
Chain of RARγ (P18911 185-419): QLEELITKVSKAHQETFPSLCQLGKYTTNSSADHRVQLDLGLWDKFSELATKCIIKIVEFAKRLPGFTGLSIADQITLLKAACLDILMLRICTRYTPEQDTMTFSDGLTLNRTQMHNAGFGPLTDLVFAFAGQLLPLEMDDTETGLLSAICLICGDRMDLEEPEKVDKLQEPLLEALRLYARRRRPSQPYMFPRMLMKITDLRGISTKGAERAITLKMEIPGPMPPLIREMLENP
Method: as §1, §2, §3, §4

Structure (SMILES) | EC50 [1] [nM] | RARα/RARβ ratio [1] | EC50 [2] [nM] | EC50 [3] [nM] | RARγ/RARβ ratio [3]
Cc1ccc(C)c2oc(-c3noc(-c4ccc(C(=O)O)cc4Cl)n3)cc12 [BHBA-031, 3-Chloro-4-(3-(4,7-dimethylbenzofuran-2-yl)-1,2,4-oxadiazol-5-yl)benzoic acid] | 150 | 8.8 | 17 | 42 | 2.5
Cc1cc(-c2nc(-c3cc4c(C)ccc(C)c4o3)no2)ccc1C(=O)O [BHBA-032, 4-(3-(4,7-Dimethylbenzofuran-2-yl)-1,2,4-oxadiazol-5-yl)-2-methylbenzoic acid] | 150 | 18.5 | 8.1 | 22 | 2.7
Cc1ccc(C)c2oc(-c3nnc(-c4ccc(C(=O)O)cc4)o3)cc12 [BHBA-034, 4-(5-(4,7-Dimethylbenzofuran-2-yl)-1,3,4-oxadiazol-2-yl)benzoic acid] | 92 | 4.6 | 20 | 58 | 2.9
Cc1cc(C(=O)O)ccc1-c1nnc(-c2cc3c(C)ccc(C)c3o2)o1 [BHBA-035, 4-(5-(4,7-Dimethylbenzofuran-2-yl)-1,3,4-oxadiazol-2-yl)-3-methylbenzoic acid] | 91 | 1.3 | 67 | 83 | 1.2
Cc1ccc(C)c2oc(-c3nnc(-c4ccc(C(=O)O)cc4Cl)o3)cc12 [BHBA-036, 3-Chloro-4-(5-(4,7-dimethylbenzofuran-2-yl)-1,3,4-oxadiazol-2-yl)benzoic acid] | 225 | 8 | 28 | 58 | 2.1
Cc1ccc(C)c2oc(-c3nnc(-c4ccc(C(=O)O)c(F)c4)o3)cc12 [BHBA-037, 4-(5-(4,7-Dimethylbenzofuran-2-yl)-1,3,4-oxadiazol-2-yl)-2-fluorobenzoic acid] | 91 | 2 | 45 | 60 | 1.3
Cc1ccc(C)c2oc(-c3nc(-c4ccc(C(=O)O)cc4Cl)ns3)cc12 [BHBA-039, 3-Chloro-4-(5-(4,7-dimethylbenzofuran-2-yl)-1,2,4-thiadiazol-3-yl)benzoic acid] | 65 | – | 3.6 | 13 | –
Cc1cc(-c2nsc(-c3cc4c(C)ccc(C)c4o3)n2)ccc1C(=O)O [BHBA-040, 4-(5-(4,7-Dimethylbenzofuran-2-yl)-1,2,4-thiadiazol-3-yl)-2-methylbenzoic acid] | 72 | – | 11 | 130 | –

Now those with a lower EC50 [1], led by results:

EC50 [1] [nM] | RARα/RARβ ratio [1] | EC50 [2] [nM] | EC50 [3] [nM] | RARγ/RARβ ratio [3] | Structure (SMILES)
45 | 3.5 | 13 | 23 | 1.8 | Cc1ccc(C)c2oc(-c3noc(-c4ccc(C(=O)O)c(F)c4)n3)cc12 [BHBA-033, 4-(3-(4,7-Dimethylbenzofuran-2-yl)-1,2,4-oxadiazol-5-yl)-2-fluorobenzoic acid]
19 | 3.7 | 5.1 | 6.1 | 1.2 | Cc1ccc(C)c2oc(-c3nc(-c4ccc(C(=O)O)cc4)ns3)cc12 [BHBA-038, 4-(5-(4,7-Dimethylbenzofuran-2-yl)-1,2,4-thiadiazol-3-yl)benzoic acid]
20 | 4.6 | 4.3 | 4.7 | 1.0 | Cc1ccc(C)c2oc(-c3nc(-c4ccc(C(=O)O)c(F)c4)ns3)cc12 [BHBA-041, 4-(5-(4,7-Dimethylbenzofuran-2-yl)-1,2,4-thiadiazol-3-yl)-2-fluorobenzoic acid]
9.4 | 3 | 3.1 | 2.3 | 0.74 | Cc1ccc(C)c2oc(-c3nsc(-c4ccc(C(=O)O)cc4)n3)cc12 [BHBA-042, 4-(3-(4,7-Dimethylbenzofuran-2-yl)-1,2,4-thiadiazol-5-yl)benzoic acid]
